Test results from patent US20230263822A1, “MODULATION OF FACTOR 11 EXPRESSION” (Ionis Pharmaceuticals, Inc., priority 2008, published 2023).

Columns and labels:
[1] = design: species or system CD1 mice; conditions: mouse, in vivo
Experimental: Five mice from each group were sacrificed 3 days, 28 days and 56 days following the final dose. Livers were harvested for analysis.
The concentration of the full-length oligonucleotide as well as the total oligonucleotide concentration (including the degraded form) was measured. The method used is a modification of previously published methods (Leeds et al., 1996; Geary et al., 1999) which consist of a phenol-chloroform (liquid-liquid) extraction followed by a solid phase extraction. An internal standard (ISIS 355868, a 27-mer 2′-O-methoxyethyl modified phosphorothioate oligonucleotide, […], designated herein as SEQ ID NO: 270) was added prior to extraction. […] Half-lives were then calculated using WinNonlin software ([…]).
The results are presented in Tables 68 and 69, expressed as μg/g liver tissue.

human Factor 11 mRNA = experiment: Dose-dependent inhibition of human Factor 11 in HepG2 cells, electroporation 625-20,000 nM (Example 5); assay type: cell-based; conditions: ~16 hours
Experimental: The gapmers were also transfected via electroporation and their dose dependent inhibition of human Factor 11 mRNA was measured. Cells were plated at a density of 20,000 cells per well and transfected via electroporation with 625 nM, 1250 nM, 2500 nM, 5,000 nM, 10,000 nM, and 20,000 nM concentrations of antisense oligonucleotide, as specified in Table 12. After a treatment period of approximately 16 hours, RNA was isolated from the cells and human Factor 11 mRNA levels were measured by quantitative real-time PCR. Human Factor 11 primer probe set RTS 2966 was used to measure mRNA levels. Factor 11 mRNA levels were adjusted according to total RNA content, as measured by RIBOGREEN. Results are presented as percent inhibition of human Factor 11, relative to untreated control cells.

Row | Substance | Half-Life in the liver [1] [days] | percent inhibition of human Factor 11 mRNA relative to untreated control cells (human Factor 11 mRNA; 625 nM) [%] | percent inhibition of human Factor 11 mRNA relative to untreated control cells (human Factor 11 mRNA; 1250 nM) [%] | percent inhibition of human Factor 11 mRNA relative to untreated control cells (human Factor 11 mRNA; 2500 nM) [%] | percent inhibition of human Factor 11 mRNA relative to untreated control cells (human Factor 11 mRNA; 5000 nM) [%] | percent inhibition of human Factor 11 mRNA relative to untreated control cells (human Factor 11 mRNA; 10000 nM) [%] | percent inhibition of human Factor 11 mRNA relative to untreated control cells (human Factor 11 mRNA; 20000 nM) [%]
1 | 416858 (antisense ACGGCATTGGTGCACAGTTT; 5-10-5 gapmer, further chemistry not given here) [compound 416858] | 26 | 65 | 77 | 87 | 89 | 93 | 93
2 | 416999 (antisense GCACAGTTTCTGGCAGGCCT; 2-13-5 gapmer chemistry, further chemistry not given here) [compound 416999] | 9 | 61 | 82 | 89 | 94 | 94 | 97
3 | 416850 (antisense TGCACAGTTTCTGGCAGGCC; 5-10-5 gapmer, further chemistry not given here) [compound 416850] | 18 | 69 | 80 | 87 | 90 | 93 | 96
4 | 416838 (antisense GCAACCGGGATGATGAGTGC; 5-10-5 gapmer, further chemistry not given here) [compound 416838] | 13 | 66 | 79 | 87 | 90 | 93 | 96
5 | 417002 (antisense GGTGCACAGTTTCTGGCAGG; 2-13-5 gapmer chemistry, further chemistry not given here) [compound 417002] | 11 | 59 | 72 | 86 | 90 | 94 | 96
6 | 416892 (antisense GCCCTTCATGTCTAGGTCCA; 3-14-3 chimeric gapmer, further chemistry not given here) [compound 416892] | 12 | 66 | 86 | 96 | 97 | 100 | 100
